From patent publication EP1121151B1, “ANTI-INFLAMMATORY ALPHA2, BETA1 INTEGRIN-RELATED SUBSTANCES OR ANTIBODIES” (Lindbom, Lennart, priority 1998, dated 2006)

Test system: PMN
Experiment: Intravital time lapse videomicroscopy of PAF-stimulated PMN locomotion in rat mesenteric tissue in vivo
Settings: rat mesentery, PAF 10^-7 M
Procedure: Intravital time lapse videomicroscopy of PMN locomotion in vivo. PMN locomotion in rat mesenteric tissue was studied through use of intravital time lapse videomicroscopy according to the protocol previously described in detail (Werr et al., supra). In brief, Wistar rats (200-250 g) were anesthetized with equal parts of fluanison/fentanyl (10/0.2 mg/ml; Hypnorm; Janssen-Cilag Ltd., Saunderton, UK) and midazolam (5 mg/ml; Dormicum; Hoffman-La Roche, Basel, Switzerland) diluted 1:1 with sterile water (2 ml/kg i.m.). Body temperature was maintained at 37° C by a heating pad connected to a rectal thermistor. After laparotomy, a segment of the ileum was exposed on a heated transparent pedestal to allow microscopic observation of the mesenteric microvasculature (Orthoplan microscope equipped with water immersion lens SW×25, NA 0.60; Leitz, Wetzlar, Germany). The microscopic image was televised and recorded on time lapse video (at 1/7 of normal speed). Analysis of leukocyte migration in the mesenteric tissue was made off line and the migration path of individual leukocytes was tracked with a digital image analyzer. […]

ACRGDGWMCG
effect on PMN migration at ten-fold higher concentrations (ten-fold higher concentrations than 500 µM, some experiments): did not yield different effects | effect on PMN migration (topical administration, peptide 500 µM): without effect
